Source: US9108944B2, “Androgen receptor modulators and uses thereof” (ARAGON PHARMACEUTICALS, INC., priority 2010, dated 2015)

Legend:
[1] = biological target: T1, AR-VP16 (Homo sapiens, UniProt P10275); assay: AR-VP16 DNA Binding Assay, antagonist mode (HepG2 cells, 0.1 nM R1881); type: cell-based
T1 sequence (P10275 560-920 limits assumed): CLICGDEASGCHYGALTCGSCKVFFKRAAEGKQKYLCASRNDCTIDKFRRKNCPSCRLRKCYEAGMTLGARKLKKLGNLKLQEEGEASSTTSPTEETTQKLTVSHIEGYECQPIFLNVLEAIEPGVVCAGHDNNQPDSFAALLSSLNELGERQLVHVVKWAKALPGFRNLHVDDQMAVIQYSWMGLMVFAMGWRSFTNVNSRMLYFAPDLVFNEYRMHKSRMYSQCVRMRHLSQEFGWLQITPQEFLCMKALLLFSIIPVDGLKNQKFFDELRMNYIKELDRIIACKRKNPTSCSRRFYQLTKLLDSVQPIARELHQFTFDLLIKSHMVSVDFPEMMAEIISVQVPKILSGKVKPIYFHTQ
In short: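 HepG2 cells transiently transfected with AR-VP16 (Lipofectin), incubated overnight, then treated with compound in RPMI with charcoal-stripped serum. Antagonist mode adds R1881 at 0.1 nM final. Cells lysed after 48 h incubation for read-out.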

[2] = biological target: T1, AR-VP16; assay: AR-VP16 DNA Binding Assay, agonist mode (HepG2 cells); type: cell-based; settings: Emax >20x DMSO control = agonist

`CCOC(=O)COc1ccc(N2C(=S)N(c3cnc(C#N)c(C(F)(F)F)c3)C(=O)C23CCC3)cc1F` [Compound 132, Ethyl 2-(4-(7-(6-cyano-5-(trifluoromethyl)pyridin-3-yl)-8-oxo-6-thioxo-5,7-diazaspiro[3.4]octan-5-yl)-2-fluorophenoxy)acetate] was tested, and the IC50 [1] was > 1000 nM and the “ARVP16 DNA Binding Assay (Agonist mode): Agonist?” value (from here on “ARVP16 DNA Binding Assay”) [2] was “No (Agonist defined as a compound whose Emax in the ARVP16 DNA Binding Assay (Agonist mode) is >20x DMSO control)”.

For `Cc1cc(N2C(=O)C3(CCC3)N(c3ccc(C(=O)Nc4ccccc4F)c(F)c3)C2=S)cnc1C#N` [Compound 297, 4-(7-(6-Cyano-5-methylpyridin-3-yl)-8-oxo-6-thioxo-5,7-diazaspiro[3.4]octan-5-yl)-2-fluoro-N-(2-fluorophenyl)benzamide], the IC50 [1] was < 1000 nM and the “ARVP16 DNA Binding Assay” value [2] was “No (Agonist defined as a compound whose Emax in the ARVP16 DNA Binding Assay (Agonist mode) is >20x DMSO control)”.

In the case of `N#Cc1ncc(N2C(=O)C3(CCC3)N(c3ccc(C(=O)NCc4ccncc4)c(F)c3)C2=S)cc1C(F)(F)F` [Compound 259, 4-(7-(6-Cyano-5-(trifluoromethyl)pyridin-3-yl)-8-oxo-6-thioxo-5,7-diazaspiro[3.4]octan-5-yl)-2-fluoro-N-(pyridin-4-ylmethyl)benzamide], the IC50 [1] is reported as < 1000 nM and the “ARVP16 DNA Binding Assay” value [2] is reported as “No (Agonist defined as a compound whose Emax in the ARVP16 DNA Binding Assay (Agonist mode) is >20x DMSO control)”.

In the case of `N#Cc1ncc(N2C(=O)C3(CCC3)N(c3ccccc3Oc3ccccc3)C2=S)cc1C(F)(F)F` [Compound 23, 5-(8-Oxo-5-(2-phenoxyphenyl)-6-thioxo-5,7-diazaspiro[3.4]octan-7-yl)-3-(trifluoromethyl)picolinonitrile], the IC50 [1] is reported as > 1000 nM and the “ARVP16 DNA Binding Assay” value [2] is reported as “No (Agonist defined as a compound whose Emax in the ARVP16 DNA Binding Assay (Agonist mode) is >20x DMSO control)”.

With `N#Cc1ncc(N2C(=O)C3(CCC3)N(c3ccc(F)c(OCCN4CCOCC4)c3)C2=S)cc1C(F)(F)F` [Compound 164, 5-(5-(4-Fluoro-3-(2-morpholinoethoxy)phenyl)-8-oxo-6-thioxo-5,7-diazaspiro[3.4]octan-7-yl)-3-(trifluoromethyl)picolinonitrile] the IC50 [1] was > 1000 nM and the “ARVP16 DNA Binding Assay” value [2] was “No (Agonist defined as a compound whose Emax in the ARVP16 DNA Binding Assay (Agonist mode) is >20x DMSO control)”.

With `Cc1cc(N2C(=O)C(C)(C)N(c3ccc(OC4CCN(C)CC4)cc3)C2=S)cnc1C#N` [Compound 197, 5-(4,4-Dimethyl-3-(4-((1-methylpiperidin-4-yl)oxy)phenyl)-5-oxo-2-thioxoimidazolidin-1-yl)-3-methylpicolinonitrile] the IC50 [1] was > 1000 nM and the “ARVP16 DNA Binding Assay” value [2] was “No (Agonist defined as a compound whose Emax in the ARVP16 DNA Binding Assay (Agonist mode) is >20x DMSO control)”.

In the case of `N#Cc1ncc(N2C(=O)C3(CCC3)N(c3ccc(F)c(C(=O)NCCc4cccnc4)c3)C2=S)cc1C(F)(F)F` [Compound 240, 5-(7-(6-Cyano-5-(trifluoromethyl)pyridin-3-yl)-8-oxo-6-thioxo-5,7-diazaspiro[3.4]octan-5-yl)-2-fluoro-N-(2-(pyridin-3-yl)ethyl)benzamide], the IC50 [1] is reported as > 1000 nM and the “ARVP16 DNA Binding Assay” value [2] is reported as “No (Agonist defined as a compound whose Emax in the ARVP16 DNA Binding Assay (Agonist mode) is >20x DMSO control)”.

In the case of `N#Cc1ncc(N2C(=O)C3(CCC3)N(c3cccc(OC(F)(F)F)c3)C2=S)cc1C(F)(F)F` [Compound 45, 5-(8-Oxo-6-thioxo-5-(3-(trifluoromethoxy)phenyl)-5,7-diazaspiro[3.4]octan-7-yl)-3-(trifluoromethyl)picolinonitrile], the IC50 [1] is reported as < 1000 nM and the “ARVP16 DNA Binding Assay” value [2] is reported as “No (Agonist defined as a compound whose Emax in the ARVP16 DNA Binding Assay (Agonist mode) is >20x DMSO control)”.
